The source of these data is patent US20260364184A1, “COMPOUND BASED ON OXOISOINDOLINYL-SUBSTITUTED TETRAHYDROPYRIMIDINE-DIONE AND USE THEREOF” (GLUETACS THERAPEUTICS (SHANGHAI) CO., LTD., priority 2023, published 2026).

Test [1] concerns Human myeloid monocytic leukemia cell line (MV-4-11). Put plainly: Inhibition of MV-4-11 cell proliferation (CellTiter luminescent viability). In kind it is cell-based. Conditions: Homo sapiens, MV4-11, Table IG2, FAK inhibitor-based, 96 hours; for inhibition at 0.01 µM: MV-4-11, 10 nM, read-out: Inhibition Rate at 10 nM (%); for inhibition at 0.5 µM: MV-4-11, 500 nM, read-out: Inhibition Rate at 500 nM (%). An outline of the steps:
(§1)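 Cells are seeded in 96-well plates, cultured at 37 °C, 5% CO2, and treated next day with 5-fold serial compound dilutions (stock series from 2000 μM; 0.5 μL into 100 μL medium). Viability is read by CellTiter-Meiluncell luminescence after the set exposure, and IC50 is taken from growth-inhibition curves.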

The subject of test [2] is Human breast cancer cell line (MDA-MB-231). Put plainly: Inhibition of MDA-MB-231 cell proliferation (CellTiter luminescent viability). In kind it is cell-based. Conditions: Table IG3, FAK inhibitor-based, 96 hours; for inhibition at 0.01 µM: MDA-MB-231, 10 nM, read-out: Inhibition Rate at 10 nM (%); for inhibition at 0.5 µM: MDA-MB-231, 500 nM, read-out: Inhibition Rate at 500 nM (%). The method, then:
The tumor cells used herein were cultured in a cell culture medium listed in table 3 at 37 °C in an incubator with 5% CO2. Prior to experimentation, all cell lines used were correctly identified by STR profiling, and tested negative for mycoplasma contamination using a mycoplasma detection kit through routine screenings.
The IC50 values of the compounds of the present disclosure (including the compounds in Table 1, Table 2, and Examples 1-468) were determined using the CellTiter-Meiluncell Luminescent Cell Viability Assay Kit from Dalian Meilun Biotech Co., Ltd. The detailed procedure is as follows: Tumor cells were seeded in 96-well cell culture plates at the densities specified in Table 4. On the following day, the test compounds of the present disclosure were subjected to serial dilution. The dilution can be performed according to one of the following two methods: • (1) The first dilution method: The test compounds of the present disclosure (including the compounds in Table 1, Table 2, and Examples 1-468) were subjected to 5-fold serial dilutions starting from a highest concentration of 2000 μM, resulting in a total of 9 concentrations from high to low (2000, 400, 80, 16, 3.2, 0.64, 0.128, 0.0256, 0.00512 μM). Subsequently, 0.5 μL of the test compound dilution was transferred into the 96-well plate containing the cells, with each well containing 100 μL of cell culture medium. […] Into the 96-well plate, the diluted test compounds and corresponding detection reagents were added, resulting in final test compound concentrations of 500 nM and 10 nM, respectively. The experimental procedure is described below using the diluted 2 μM test compound as an example.
0.5 μL of the aforementioned diluted compound of the present disclosure (including the compounds in Table 1, Table 2, and Examples 1-468) was added to the seeded cells in 100 μL of medium, yielding a final test compound concentration of 10 nM. After the cells were treated with the compounds of the present disclosure for a specified period, the cell viability assay reagent was added to the culture medium according to the kit's instructions to determine cell viability. […] All controls were treated using the same procedure as the compounds of the present disclosure. The growth inhibition curves for the compounds of the present disclosure were plotted using Prism GraphPad software, and the IC50 values were calculated therefrom.

The subject of test [3] is Human Multiple myeloma cell line (MM.1S). Put plainly: Inhibition of MM.1S cell proliferation (CellTiter luminescent viability). The format is cell-based. Conditions: Homo sapiens, MM1.S, Table IG1, FAK inhibitor-based, 96 hours; for inhibition at 0.01 µM: 10 nM, read-out: Inhibition Rate at 10 nM (%); for inhibition at 0.5 µM: 500 nM, read-out: Inhibition Rate at 500 nM (%). An outline of the steps: as §1

Test [4] addresses T1, human Cereblon WT GST-tagged protein (CRBN) (Homo sapiens, UniProt Q96SW2).
T1 construct: purchased CISBIO 64BDCRBNPEH
Kind of test: CRBN binding by HTRF (Cereblon binding kit). Put shortly: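 GST-tagged human Cereblon WT was incubated 3 h at room temperature with compound, thalidomide-Re tracer and Eu anti-GST antibody. Final compound concentrations were 10 to 0.00064 µM (7 points) or 2 and 0.5 µM. Inhibition rate was calculated from HTRF 665/620 nm ratios versus solvent and blank controls.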

For the next test, the target named is T2, IKZF2 (Homo sapiens, UniProt Q96SW2+Q9UKS7).
T2 construct: expression of target proteins in cells; endogenous in cells
T2 sequence (Q9UKS7 whole entry): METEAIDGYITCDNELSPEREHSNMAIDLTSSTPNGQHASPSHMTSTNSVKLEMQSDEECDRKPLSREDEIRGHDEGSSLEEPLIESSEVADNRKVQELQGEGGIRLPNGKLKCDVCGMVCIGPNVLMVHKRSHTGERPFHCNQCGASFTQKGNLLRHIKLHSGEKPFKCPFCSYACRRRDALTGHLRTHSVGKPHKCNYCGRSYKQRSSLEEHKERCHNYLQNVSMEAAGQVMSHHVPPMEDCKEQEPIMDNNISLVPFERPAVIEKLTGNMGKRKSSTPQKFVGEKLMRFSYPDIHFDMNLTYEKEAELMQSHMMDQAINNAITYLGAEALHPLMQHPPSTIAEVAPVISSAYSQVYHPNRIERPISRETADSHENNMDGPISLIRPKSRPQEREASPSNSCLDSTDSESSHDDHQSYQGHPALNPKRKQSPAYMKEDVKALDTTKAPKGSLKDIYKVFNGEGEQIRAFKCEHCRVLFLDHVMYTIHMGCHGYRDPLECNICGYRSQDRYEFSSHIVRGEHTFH
T2 sequence (Q96SW2 whole entry): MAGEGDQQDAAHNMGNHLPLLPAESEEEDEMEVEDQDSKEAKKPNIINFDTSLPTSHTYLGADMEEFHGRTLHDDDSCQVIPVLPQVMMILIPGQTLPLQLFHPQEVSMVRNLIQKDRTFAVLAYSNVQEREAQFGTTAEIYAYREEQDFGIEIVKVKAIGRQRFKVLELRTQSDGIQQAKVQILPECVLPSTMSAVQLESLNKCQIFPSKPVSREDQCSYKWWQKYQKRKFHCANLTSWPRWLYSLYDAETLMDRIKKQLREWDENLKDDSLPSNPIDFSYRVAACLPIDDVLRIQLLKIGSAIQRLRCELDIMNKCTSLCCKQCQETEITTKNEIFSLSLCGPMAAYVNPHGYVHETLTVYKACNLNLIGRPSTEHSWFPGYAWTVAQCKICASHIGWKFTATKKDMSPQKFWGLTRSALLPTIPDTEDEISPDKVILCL
T2 sequence (Q16531 whole entry partner): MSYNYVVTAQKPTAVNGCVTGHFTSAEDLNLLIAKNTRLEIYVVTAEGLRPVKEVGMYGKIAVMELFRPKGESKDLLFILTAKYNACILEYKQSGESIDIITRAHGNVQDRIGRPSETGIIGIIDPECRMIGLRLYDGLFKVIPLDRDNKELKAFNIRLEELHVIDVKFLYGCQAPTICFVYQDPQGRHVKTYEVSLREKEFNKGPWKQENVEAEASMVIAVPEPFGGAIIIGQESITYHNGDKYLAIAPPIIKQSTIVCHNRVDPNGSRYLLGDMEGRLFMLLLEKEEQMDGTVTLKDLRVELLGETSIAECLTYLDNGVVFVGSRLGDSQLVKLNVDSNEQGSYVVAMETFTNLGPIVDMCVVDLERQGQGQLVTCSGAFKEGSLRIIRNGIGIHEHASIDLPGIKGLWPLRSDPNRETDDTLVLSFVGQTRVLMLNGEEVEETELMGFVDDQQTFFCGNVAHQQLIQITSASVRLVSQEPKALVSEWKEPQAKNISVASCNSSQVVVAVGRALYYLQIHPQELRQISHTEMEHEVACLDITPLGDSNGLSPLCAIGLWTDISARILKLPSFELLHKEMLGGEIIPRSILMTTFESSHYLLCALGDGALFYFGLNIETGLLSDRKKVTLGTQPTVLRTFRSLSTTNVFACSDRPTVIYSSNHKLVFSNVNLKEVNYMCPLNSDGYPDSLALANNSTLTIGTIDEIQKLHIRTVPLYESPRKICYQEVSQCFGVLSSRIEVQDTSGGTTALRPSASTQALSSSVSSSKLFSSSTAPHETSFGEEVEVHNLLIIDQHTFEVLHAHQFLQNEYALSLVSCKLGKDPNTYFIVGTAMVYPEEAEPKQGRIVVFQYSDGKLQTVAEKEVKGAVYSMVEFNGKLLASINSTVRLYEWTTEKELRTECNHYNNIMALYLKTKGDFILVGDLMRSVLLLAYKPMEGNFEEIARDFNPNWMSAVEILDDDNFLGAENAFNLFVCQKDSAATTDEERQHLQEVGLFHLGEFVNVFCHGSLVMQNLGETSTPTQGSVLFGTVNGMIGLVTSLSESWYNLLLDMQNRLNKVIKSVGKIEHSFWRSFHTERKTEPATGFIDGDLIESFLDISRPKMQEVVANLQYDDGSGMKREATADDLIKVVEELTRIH
Put plainly: Western blot degradation of IKZF2. The format is cell-based. Conditions: hPBMC Cell; 24 hours. The method, then: (§2) Conventional Western blot assay was performed to evaluate the effects of the compounds of the present disclosure on the expression of target proteins in cells.
(§3) (1) Cell Seeding and Protein Harvesting: The selected cells were processed according to the cell seeding procedure and protein harvesting procedure in Table II-2.
(§4) (2) To the collected supernatant, 5×SDS sample loading buffer was added, followed by denaturation at 95 °C for 5 minutes. The denatured samples were then separated by SDS-PAGE electrophoresis on a polyacrylamide gel. Proteins were transferred to a nitrocellulose membrane (0.45 μm NC membrane), blocked with blocking buffer at room temperature for 1 hour, and subjected to antibody incubation and development procedures according to the antibody manufacturer's instructions (Cell Signaling Technology).
(§5) Half-Maximal Degradation Concentration value (the drug concentration required for degrading proteins by 50%, abbreviated as DC50) reads method: comparing the grayscale values of Western blot bands from drug-treated samples with those from blank DMSO-treated controls, and identifying the drug concentration range at which the grayscale value is half that of the DMSO-treated control bands.
(§6) DC50 values can be calculated using ImageJ software to measure grayscale values of Western blot bands from drug-treated samples. The concentration-response curve is fitted to estimate the drug concentration corresponding to half the grayscale value.
(§7) Target protein remaining (%) refers to the percentage of target protein remaining in cells after treatment with protein degrader compounds.
(§8) Calculation method for target protein remaining (%): Use ImageJ software to measure grayscale values of Western blot bands from drug (protein degrader)-treated samples. The grayscale value of drug-treated bands is divided by that of internal control protein bands, and the resulting quotient is normalized to obtain the relative percentage of remaining target protein after protein degrader treatment.
(§9) Target protein degradation rate (%)=1−target protein remaining (%).

The target of another test is T3, CK1α (Homo sapiens, UniProt P48729+Q96SW2).
T3 construct: expression of target proteins in cells; endogenous in cells
Put plainly: Western blot degradation of CK1α. The format is cell-based. Conditions: hPBMC Cell; 24 hours. The method, then: as §2, §3, §4, §5, §6, §7, §8, §9

The target in a further test is T4, IKZF1 (Homo sapiens, UniProt Q13422+Q96SW2).
T4 construct: expression of target proteins in cells; endogenous in cells
T4 sequence (Q13422 whole entry): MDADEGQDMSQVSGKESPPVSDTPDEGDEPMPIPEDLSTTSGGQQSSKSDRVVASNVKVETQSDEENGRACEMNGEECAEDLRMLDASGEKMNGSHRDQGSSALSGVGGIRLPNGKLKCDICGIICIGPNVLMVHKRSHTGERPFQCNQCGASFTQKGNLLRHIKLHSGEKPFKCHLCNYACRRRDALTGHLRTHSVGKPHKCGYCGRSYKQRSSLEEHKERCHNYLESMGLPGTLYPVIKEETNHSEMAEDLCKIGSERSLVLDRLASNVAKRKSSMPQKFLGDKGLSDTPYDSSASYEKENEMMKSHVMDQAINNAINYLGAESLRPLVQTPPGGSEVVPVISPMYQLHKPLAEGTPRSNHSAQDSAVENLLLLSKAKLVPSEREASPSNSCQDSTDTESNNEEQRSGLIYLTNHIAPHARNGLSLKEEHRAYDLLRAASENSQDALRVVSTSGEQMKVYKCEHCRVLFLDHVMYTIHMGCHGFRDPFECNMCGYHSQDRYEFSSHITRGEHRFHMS
T4 sequence (Q96SW2 whole entry): as the sequence (Q96SW2 whole entry) above
T4 sequence (Q16531 whole entry partner): as the sequence (Q16531 whole entry partner) above
Put plainly: Western blot degradation of IKZF1. In kind it is cell-based. Conditions: hPBMC Cell; 24 hours. The method, then: as §2, §3, §4, §5, §6, §7, §8, §9

A further test deals with T5, WEE1 (Homo sapiens, UniProt P30291+Q96SW2).
T5 construct: expression of target proteins in cells; endogenous in cells
T5 sequence (P30291 whole entry): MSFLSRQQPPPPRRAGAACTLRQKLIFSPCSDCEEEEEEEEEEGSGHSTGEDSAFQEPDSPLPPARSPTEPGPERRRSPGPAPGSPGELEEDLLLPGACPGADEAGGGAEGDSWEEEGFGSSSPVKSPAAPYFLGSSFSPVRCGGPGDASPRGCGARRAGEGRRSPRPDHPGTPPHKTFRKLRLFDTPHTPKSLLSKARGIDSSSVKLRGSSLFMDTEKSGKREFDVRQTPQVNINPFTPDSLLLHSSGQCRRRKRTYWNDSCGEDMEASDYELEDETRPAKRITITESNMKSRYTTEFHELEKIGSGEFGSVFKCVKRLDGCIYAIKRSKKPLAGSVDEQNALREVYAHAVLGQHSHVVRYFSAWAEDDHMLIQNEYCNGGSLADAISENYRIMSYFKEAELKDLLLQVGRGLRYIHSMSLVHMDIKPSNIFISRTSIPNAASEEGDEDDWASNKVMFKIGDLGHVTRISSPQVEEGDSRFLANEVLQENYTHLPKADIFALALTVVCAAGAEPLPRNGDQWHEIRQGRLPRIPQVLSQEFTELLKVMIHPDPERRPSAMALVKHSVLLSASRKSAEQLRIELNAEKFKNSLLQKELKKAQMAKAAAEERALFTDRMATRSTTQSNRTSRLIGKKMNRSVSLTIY
T5 sequence (Q96SW2 whole entry): as the sequence (Q96SW2 whole entry) above
T5 sequence (Q16531 whole entry partner): as the sequence (Q16531 whole entry partner) above
Put plainly: Western blot degradation of WEE1. In kind it is cell-based. Conditions: hPBMC Cell; 24 hours. The method, then:
as §2, §3, §4, §5, §6, §7, §8, §9

In the next test the target is T6, GSPT1 (Homo sapiens, UniProt P15170+Q96SW2).
T6 construct: expression of target proteins in cells; endogenous in cells
T6 sequence (P15170 whole entry): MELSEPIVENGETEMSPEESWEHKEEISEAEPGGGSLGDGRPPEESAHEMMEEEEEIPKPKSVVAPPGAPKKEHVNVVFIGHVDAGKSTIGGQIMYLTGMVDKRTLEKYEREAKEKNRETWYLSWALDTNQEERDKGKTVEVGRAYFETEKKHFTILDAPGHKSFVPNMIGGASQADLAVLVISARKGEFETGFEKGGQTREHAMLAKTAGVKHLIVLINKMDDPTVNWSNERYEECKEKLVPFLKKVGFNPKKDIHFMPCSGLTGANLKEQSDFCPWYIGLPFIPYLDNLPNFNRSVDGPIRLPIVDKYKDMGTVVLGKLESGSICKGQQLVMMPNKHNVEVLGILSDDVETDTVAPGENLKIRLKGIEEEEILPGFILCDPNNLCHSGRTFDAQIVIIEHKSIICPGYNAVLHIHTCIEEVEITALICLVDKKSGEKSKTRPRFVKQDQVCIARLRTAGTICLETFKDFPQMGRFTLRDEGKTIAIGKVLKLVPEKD
T6 sequence (Q96SW2 whole entry): as the sequence (Q96SW2 whole entry) above
T6 sequence (Q16531 whole entry partner): as the sequence (Q16531 whole entry partner) above
Kind of test: Western blot degradation of GSPT1. In kind it is cell-based. Conditions: hPBMC Cell; 24 hours. The method, then: as §2, §3, §4, §5, §6, §7, §8, §9

For the next test, the target named is T7, IKZF3 (Homo sapiens, UniProt Q96SW2+Q9UKT9).
T7 construct: expression of target proteins in cells; endogenous in cells
T7 sequence (Q9UKT9 whole entry): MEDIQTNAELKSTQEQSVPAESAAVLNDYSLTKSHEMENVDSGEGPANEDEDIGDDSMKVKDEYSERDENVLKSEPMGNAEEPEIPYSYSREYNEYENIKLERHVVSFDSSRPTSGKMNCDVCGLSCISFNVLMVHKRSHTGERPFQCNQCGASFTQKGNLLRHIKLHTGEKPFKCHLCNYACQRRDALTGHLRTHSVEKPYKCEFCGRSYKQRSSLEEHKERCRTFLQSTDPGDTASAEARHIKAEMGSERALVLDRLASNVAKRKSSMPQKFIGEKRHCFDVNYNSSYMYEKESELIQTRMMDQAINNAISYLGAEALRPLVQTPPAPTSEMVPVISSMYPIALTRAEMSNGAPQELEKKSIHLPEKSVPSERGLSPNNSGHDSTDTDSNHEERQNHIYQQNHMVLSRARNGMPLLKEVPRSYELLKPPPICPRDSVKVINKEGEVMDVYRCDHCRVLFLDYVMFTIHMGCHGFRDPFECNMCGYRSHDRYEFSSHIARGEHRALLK
T7 sequence (Q96SW2 whole entry): as the sequence (Q96SW2 whole entry) above
T7 sequence (Q16531 whole entry partner): as the sequence (Q16531 whole entry partner) above
Kind of test: Western blot degradation of IKZF3. The format is cell-based. Conditions: hPBMC Cell; 24 hours. As for the experimental part: as §2, §3, §4, §5, §6, §7, §8, §9

T1 sequence (Q96SW2 whole entry): as the sequence (Q96SW2 whole entry) above

With `CNC(=O)c1ccc(Nc2ncc(C(F)(F)F)c(NCc3nccnc3N(C)S(C)(=O)=O)n2)cc1` [Defactinib, reference compound], the results for the inhibition at 0.01 µM in test [1], in [2] and in [3] were 5 to 10%, 30 to 40% and 5 to 10%, respectively. In addition, the inhibition at 0.5 µM in [1] was in the range of 60 to 70%; in [2], 30 to 40%; in test [3], 5 to 10%.
Compound `O=C1CCN(N2Cc3cc(CBr)ccc3C2=O)C(=O)N1` [GT-05568, 1-(5-(bromomethyl)-1-oxoisoindolin-2-yl)dihydropyrimidine-2,4(1H, 3H)-dione] displayed an IC50 in [4] of 1000 to 1500 nM. The “Degradation of substrate protein IKZF2 (substrate protein remaining %)” value at IKZF2 is given as “B (80%<substrate protein remaining %≤100%)”. For the same compound, at CK1α, the “Degradation of substrate protein CK1α (substrate protein remaining %)” value was “A (0%≤substrate protein remaining %≤80%)”. Moreover, the “Degradation of substrate protein IKZF1 (substrate protein remaining %)” value at IKZF1 is on record as “A (0%≤substrate protein remaining %≤80%)”. Further, the “Degradation of substrate protein WEE1 (substrate protein remaining %)” value at WEE1 was “A (0%≤substrate protein remaining %≤80%)”. Further, on GSPT1, the “Degradation of substrate protein GSPT1 (substrate protein remaining %)” value was “A (0%≤substrate protein remaining %≤80%)”. Moreover, the “Degradation of substrate protein IKZF3 (substrate protein remaining %)” value at IKZF3 is “A (0%≤substrate protein remaining %≤80%)”.
For `O=CC1CCN(C2CCN(c3ccc4c(c3)C(=O)N(N3CCC(=O)NC3=O)C4=O)CC2)CC1` [GT-05595, 1′-(2-(2,4-dioxotetrahydropyrimidin-1(2H)-yl)-1,3-dioxoisoindolin-5-yl)-[1,4′-bipiperidine]-4-carbaldehyde], the “Degradation of substrate protein IKZF2 (substrate protein remaining %)” value on IKZF2 is “A (0%≤substrate protein remaining %≤80%)”. At CK1α, the “Degradation of substrate protein CK1α (substrate protein remaining %)” value is reported as “B (80%<substrate protein remaining %≤100%)”. At IKZF1, the “Degradation of substrate protein IKZF1 (substrate protein remaining %)” value is reported as “B (80%<substrate protein remaining %≤100%)”. The “Degradation of substrate protein WEE1 (substrate protein remaining %)” value at WEE1 is “B (80%<substrate protein remaining %≤100%)”. On GSPT1, the “Degradation of substrate protein GSPT1 (substrate protein remaining %)” value is on record as “B (80%<substrate protein remaining %≤100%)”. The “Degradation of substrate protein IKZF3 (substrate protein remaining %)” value at IKZF3 is recorded as “B (80%<substrate protein remaining %≤100%)”.
As for `O=C1CCN(N2C(=O)c3ccc(CBr)cc3C2=O)C(=O)N1` [GT-06979, 5-(bromomethyl)-2-(2,4-dioxotetrahydropyrimidin-1(2H)-yl)isoindoline-1,3-dione], at IKZF2, the “Degradation of substrate protein IKZF2 (substrate protein remaining %)” value is “A (0%≤substrate protein remaining %≤80%)”. The “Degradation of substrate protein CK1α (substrate protein remaining %)” value on CK1α is “B (80%<substrate protein remaining %≤100%)”. In addition, the “Degradation of substrate protein IKZF1 (substrate protein remaining %)” value on IKZF1 is given as “B (80%<substrate protein remaining %≤100%)”. In addition, the “Degradation of substrate protein WEE1 (substrate protein remaining %)” value at WEE1 is recorded as “A (0%≤substrate protein remaining %≤80%)”. The “Degradation of substrate protein GSPT1 (substrate protein remaining %)” value on GSPT1 is on record as “B (80%<substrate protein remaining %≤100%)”. Moreover, on IKZF3, the “Degradation of substrate protein IKZF3 (substrate protein remaining %)” value is on record as “B (80%<substrate protein remaining %≤100%)”.
`NCc1ccc2c(c1)C(=O)N(N1CCC(=O)NC1=O)C2=O` [GT-07968, 5-(aminomethyl)-2-(2,4-dioxotetrahydropyrimidin-1(2H)-yl)isoindoline-1,3-dione]: the “Degradation of substrate protein IKZF2 (substrate protein remaining %)” value on IKZF2 is given as “A (0%≤substrate protein remaining %≤80%)”. For the same compound, on CK1α, the “Degradation of substrate protein CK1α (substrate protein remaining %)” value was “A (0%≤substrate protein remaining %≤80%)”. Besides, the “Degradation of substrate protein IKZF1 (substrate protein remaining %)” value at IKZF1 is “A (0%≤substrate protein remaining %≤80%)”. In addition, the “Degradation of substrate protein WEE1 (substrate protein remaining %)” value at WEE1 is reported as “A (0%≤substrate protein remaining %≤80%)”. In addition, on GSPT1, the “Degradation of substrate protein GSPT1 (substrate protein remaining %)” value was “B (80%<substrate protein remaining %≤100%)”. Moreover, the “Degradation of substrate protein IKZF3 (substrate protein remaining %)” value at IKZF3 is recorded as “A (0%≤substrate protein remaining %≤80%)”.
Consider `CN(Cc1ccc2c(c1)C(=O)N(N1CCC(=O)NC1=O)C2)C1CCN(c2ccc(Nc3ncc(C(F)(F)F)c(NCc4nccnc4N(C)S(C)(=O)=O)n3)cc2)CC1` [GT-08136, N-(3-(((2-((4-(4-(((2-(2,4-dioxotetrahydropyrimidin-1(2H)-yl)-3-oxoisoindolin-5-yl)methyl)(methyl)amino)piperidin-1-yl)phenyl)amino)-5-(trifluoromethyl)pyrimidin-4-yl)amino)methyl)pyrazin-2-yl)-N-methylmethanesulfonamide], for which, in test [1], the inhibition at 0.01 µM is -5 to 0% and the inhibition at 0.5 µM lay within 80 to 100%. For the same compound, in test [2], the inhibition at 0.01 µM lay in the range of 20 to 30% and the inhibition at 0.5 µM was in the range of 50 to 60%.
On to `CN(c1nccnc1CNc1nc(Nc2ccc(N3CCC(N4CCN(CC5CCN(c6cccc7c6C(=O)N(N6CCC(=O)NC6=O)C7=O)CC5)CC4)CC3)cc2)ncc1C(F)(F)F)S(C)(=O)=O` [GT-08245, N-(3-(((2-((4-(4-(4-((1-(2-(2,4-dioxotetrahydropyrimidin-1(2H)-yl)-1,3-dioxoisoindolin-4-yl)piperidin-4-yl)methyl)piperazin-1-yl)piperidin-1-yl)phenyl)amino)-5-(trifluoromethyl)pyrimidin-4-yl)amino)methyl)pyrazin-2-yl)-N-methylmethanesulfonamide], for which the inhibition at 0.01 µM in test [1] lay within 20 to 30%; in test [2], 30 to 40%; in [3], 5 to 10%. Also, the inhibition at 0.5 µM in test [1], in [2] and in test [3] was 80 to 100% in each case.
